Measured values reported in US9035056B2, “Pyrido[4,3-b]indole and pyrido[3,4-b]indole derivatives and methods of use” (Medivation Technologies, Inc., priority 2011, dated 2015).

Key:
[1] = target: T1, human recombinant serotonin (5-Hydroxytryptamine) 5-HT7 receptor (Homo sapiens, UniProt P34969); assay: Serotonin 5-HT7 radioligand binding ([3H]LSD); details: 0.1 μM compound; read-out: Percentage inhibition of ligand binding, Serotonin 5-HT7
T1 construct: expressed in transfected cells; host or cells: CHO
T1 sequence (P34969 whole entry): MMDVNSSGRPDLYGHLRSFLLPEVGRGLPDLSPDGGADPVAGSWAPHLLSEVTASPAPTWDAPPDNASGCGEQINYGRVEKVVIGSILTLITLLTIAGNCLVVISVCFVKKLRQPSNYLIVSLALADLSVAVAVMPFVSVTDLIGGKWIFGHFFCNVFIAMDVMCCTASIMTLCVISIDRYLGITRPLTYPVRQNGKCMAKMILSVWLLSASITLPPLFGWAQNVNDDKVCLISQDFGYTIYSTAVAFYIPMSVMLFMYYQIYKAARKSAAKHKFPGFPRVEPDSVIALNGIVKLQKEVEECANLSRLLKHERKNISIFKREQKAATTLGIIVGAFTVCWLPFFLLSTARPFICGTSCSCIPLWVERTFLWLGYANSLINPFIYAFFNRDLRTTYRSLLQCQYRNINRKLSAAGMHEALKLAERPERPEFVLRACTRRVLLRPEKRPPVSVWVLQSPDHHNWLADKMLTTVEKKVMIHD
Description: To evaluate in radioligand binding assays the activity of compounds of the invention, human recombinant serotonin (5-Hydroxytryptamine) 5-HT7 receptor expressed in Chinese hamster ovary (CHO) cells (Roth, B. et al, J. Pharmacol. Exp. Ther. 268:1403, 1994; Shen, Y. et al, J. Biol. Chem. 268:18200, 1993) in a modified Tris-HCl buffer (50 mM Tris-HCl, pH 7.4, 10 mM MgCl2, 0.5 mM EDTA) was used. Compounds of invention were incubated with 5.5 nM [^3H] Lysergic acid diethylamide (LSD) for 2 h at 25° C. Non-specific binding was estimated in the presence of 10 μM Serotonin (5-HT). Receptor proteins were filtered and washed, the filters were then counted to determine [^3H]LSD specifically bound. Compounds were screened at 1 μM or lower, using 1% DMSO as vehicle. Biochemical assay results are presented as the percent inhibition of specific binding in Table 5.

[2] = target: T2, human recombinant dopamine D2L receptor (Homo sapiens, UniProt P14416); assay: Dopamine D2L radioligand binding ([3H]Spiperone); details: 1 μM compound; read-out: Percentage inhibition of ligand binding, Dopamine D2L
T2 construct: expressed in transfected cells; host or cells: CHO
T2 sequence (P14416 whole entry): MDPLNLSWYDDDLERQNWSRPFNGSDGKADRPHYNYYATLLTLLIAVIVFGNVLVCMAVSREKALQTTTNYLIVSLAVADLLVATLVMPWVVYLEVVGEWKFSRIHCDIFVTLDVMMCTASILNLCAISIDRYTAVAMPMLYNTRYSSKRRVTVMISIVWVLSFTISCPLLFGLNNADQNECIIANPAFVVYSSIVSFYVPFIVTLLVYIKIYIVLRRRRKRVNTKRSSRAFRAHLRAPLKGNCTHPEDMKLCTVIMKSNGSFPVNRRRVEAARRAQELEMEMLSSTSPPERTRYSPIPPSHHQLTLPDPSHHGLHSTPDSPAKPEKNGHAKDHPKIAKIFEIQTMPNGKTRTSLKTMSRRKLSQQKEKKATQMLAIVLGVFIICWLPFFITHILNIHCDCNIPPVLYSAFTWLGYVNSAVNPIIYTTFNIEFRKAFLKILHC
Description: To evaluate in radioligand binding assays the activity of compounds of the invention, human recombinant dopamine D2L receptor expressed in Chinese hamster ovary (CHO) cells (Grandy, D. et al, Proc. Natl. Acad. Sci. USA. 86:9762, 1989; Hayes, G. et al, Mol. Endocrinol. 6:920, 1992) in a modified Tris-HCl buffer (50 mM Tris-HCl, pH 7.4, 1.4 mM Ascorbic Acid, 0.001% BSA, 150 mM NaCl) was used. Compounds of the invention were incubated with 0.16 nM [^3H]Spiperone for 120 min at 25° C. Non-specific binding was estimated in the presence of 10 μM Haloperidol. Receptor proteins were filtered and washed, the filters were then counted to determine [^3H]Spiperone specifically bound. Compounds were screened at 1 μM or lower, using 1% DMSO as vehicle. Biochemical assay results are presented as the percent inhibition of specific binding in Table 4.

[3] = target: T3, human recombinant serotonin (5-Hydroxytryptamine) 5-HT5A receptor (Homo sapiens, UniProt P47898); assay: Serotonin 5-HT5A radioligand binding ([3H]LSD); details: 0.1 μM compound; read-out: Percentage inhibition of ligand binding, Serotonin 5-HT5A
T3 construct: expressed in transfected cells; host or cells: CHO-K1
T3 sequence (P47898 whole entry): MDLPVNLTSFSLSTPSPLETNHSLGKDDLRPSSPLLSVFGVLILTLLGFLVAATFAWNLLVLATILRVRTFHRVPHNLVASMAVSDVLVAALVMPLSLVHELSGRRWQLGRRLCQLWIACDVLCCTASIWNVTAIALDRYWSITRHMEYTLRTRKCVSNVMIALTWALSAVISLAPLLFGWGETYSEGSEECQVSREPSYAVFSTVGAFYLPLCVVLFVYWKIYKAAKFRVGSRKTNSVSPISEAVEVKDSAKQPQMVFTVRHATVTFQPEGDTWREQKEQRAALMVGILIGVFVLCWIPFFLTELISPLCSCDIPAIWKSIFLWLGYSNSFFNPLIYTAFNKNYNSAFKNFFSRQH
Description: To evaluate in radioligand binding assays the activity of compounds of the invention, human recombinant serotonin (5-Hydroxytryptamine) 5-HT5A receptor expressed in Chinese hamster ovary (CHO) K1 cells (Rees, S. et al, FEBS Lett. 355:242, 1994) in a modified Tris-HCl buffer (50 mM Tris-HCl, pH 7.4, 10 mM MgCl2, 0.5 mM EDTA) was used. Compounds of the invention were incubated with 1.7 nM [^3H]Lysergic acid diethylamide (LSD) for 60 min at 37° C. Non-specific binding was estimated in the presence of 100 μM Serotonin (5-HT). Receptor proteins were filtered and washed, the filters were counted to determine [^3H]LSD specifically bound. Compounds were screened at 1 μM or lower, using 1% DMSO as vehicle. Biochemical assay results are presented as the percent inhibition of specific binding in Table 5.

[4] = target: T4, rat adrenergic α1A receptor (Rattus norvegicus, UniProt P43140); assay: Adrenergic α1A radioligand binding ([3H]Prazosin); details: 0.1 μM compound; read-out: Percentage inhibition of ligand binding, Adrenergic α1A
T4 construct: rat adrenergic α1A receptor obtained from Wistar Rat submaxillary glands; from tissue; host or cells: Wistar rat submaxillary glands
T4 sequence (P43140 1-466): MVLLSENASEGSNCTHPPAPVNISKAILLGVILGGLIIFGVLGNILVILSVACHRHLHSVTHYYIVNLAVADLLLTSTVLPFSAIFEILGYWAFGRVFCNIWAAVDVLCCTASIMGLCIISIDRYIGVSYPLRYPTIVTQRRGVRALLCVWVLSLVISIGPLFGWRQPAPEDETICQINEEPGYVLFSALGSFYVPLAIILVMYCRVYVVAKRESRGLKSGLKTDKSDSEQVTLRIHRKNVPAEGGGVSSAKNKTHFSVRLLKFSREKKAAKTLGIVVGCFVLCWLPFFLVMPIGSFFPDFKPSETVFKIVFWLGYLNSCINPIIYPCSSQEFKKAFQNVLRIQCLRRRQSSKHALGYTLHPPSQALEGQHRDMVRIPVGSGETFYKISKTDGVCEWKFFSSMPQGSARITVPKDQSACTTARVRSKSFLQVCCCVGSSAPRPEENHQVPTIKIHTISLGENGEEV
Description: To evaluate in radioligand binding assays the activity of compounds of the invention, rat adrenergic α1A receptor obtained from Wistar Rat submaxillary glands (Michel, A. et al, Br. J. Pharmacol. 98:883, 1989) in a modified Tris-HCl buffer (50 mM Tris-HCl buffer, pH 7.4, 0.5 mM EDTA) was used. Compounds of the invention were incubated with 0.25 nM [^3H]Prazosin for 60 min at 25° C. Non-specific binding was estimated in the presence of 10 μM phentolamine. Receptor proteins were filtered and washed, the filters were then counted to determine [^3H]Prazosin specifically bound. Compounds of the invention were screened at 1 μM or lower, using 1% DMSO as vehicle. Biochemical assay results are presented as the percent inhibition of specific binding in Table 3.

| SMILES | inhibition at 0.1 µM [1] | inhibition at 1 µM [2] | inhibition at 0.1 µM [3] | inhibition at 0.1 µM [4] |
| --- | --- | --- | --- | --- |
| Cc1ccc2c(c1)c1c(n2/C=C2/CCCc3ccccc32)CCN(C)C1 [i-2] | 97% | 47% | 101% | 51% |
| Cc1ccc2c(c1)c1c(n2/C=C2\CCCc3ccccc32)CCN(C)C1 [i-3] | 96% | 49% | 91% | 18% |
